According to the kinase profiling compilation of Christmann-Franck et al. (2016):

Tests used:
Experiment in all cases: KINOMEscan competition binding
Conditions in all cases: compound 10.0 µM
BMPR2 (human) = BMPR2 (human) (UniProt Q13873)
FYN (human) = FYN (human) (UniProt P06241)
SYK (human) = SYK (human) (UniProt P43405)
PRKACB (human) = PRKACB (human) (UniProt P22694)
STK33 (human) = STK33 (human) (UniProt Q9BYT3)
PRKAA2 (human) = PRKAA2 (human) (UniProt P54646)
SRC (human) = SRC (human) (UniProt P12931)
MYO3B (human) = MYO3B (human) (UniProt Q8WXR4)
ULK3 (human) = ULK3 (human) (UniProt Q6PHR2)
LRRK2 (human) = LRRK2 (human) (UniProt Q5S007)
[1] = test system: LRRK2 (human), Q5S007 [G2019S]
ACVR2B (human) = ACVR2B (human) (UniProt Q13705)
TESK1 (human) = TESK1 (human) (UniProt Q15569)
MAP4K1 (human) = MAP4K1 (human) (UniProt Q92918)
MST1R (human) = MST1R (human) (UniProt Q04912)
TEC (human) = TEC (human) (UniProt P42680)
PLK2 (human) = PLK2 (human) (UniProt Q9NYY3)
HIPK3 (human) = HIPK3 (human) (UniProt Q9H422)
CSNK1D (human) = CSNK1D (human) (UniProt P48730)
DCLK2 (human) = DCLK2 (human) (UniProt Q8N568)
Chain of DCLK2 (human) (Q8N568 whole entry, looked up): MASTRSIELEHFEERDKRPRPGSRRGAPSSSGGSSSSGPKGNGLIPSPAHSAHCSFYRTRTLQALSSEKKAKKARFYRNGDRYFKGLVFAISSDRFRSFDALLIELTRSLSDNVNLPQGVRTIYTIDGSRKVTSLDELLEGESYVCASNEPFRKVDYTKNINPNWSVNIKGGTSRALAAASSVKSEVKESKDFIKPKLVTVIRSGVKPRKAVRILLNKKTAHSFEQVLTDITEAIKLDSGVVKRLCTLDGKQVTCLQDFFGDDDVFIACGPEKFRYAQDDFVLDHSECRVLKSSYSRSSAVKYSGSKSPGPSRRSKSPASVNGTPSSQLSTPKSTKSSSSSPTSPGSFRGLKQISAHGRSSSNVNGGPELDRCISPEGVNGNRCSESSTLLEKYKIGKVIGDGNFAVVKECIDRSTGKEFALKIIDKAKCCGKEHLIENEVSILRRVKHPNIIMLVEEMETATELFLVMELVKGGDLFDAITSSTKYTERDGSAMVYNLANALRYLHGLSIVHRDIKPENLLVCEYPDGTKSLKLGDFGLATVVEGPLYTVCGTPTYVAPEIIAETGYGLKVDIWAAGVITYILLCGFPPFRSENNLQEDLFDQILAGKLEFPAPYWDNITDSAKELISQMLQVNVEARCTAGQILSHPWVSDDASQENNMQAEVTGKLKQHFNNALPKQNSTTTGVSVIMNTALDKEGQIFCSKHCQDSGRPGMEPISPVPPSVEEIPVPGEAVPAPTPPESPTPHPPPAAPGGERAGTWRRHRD

CSNK2A1 (human) = CSNK2A1 (human) (UniProt P68400)
Chain of CSNK2A1 (human) (P68400 whole entry, looked up): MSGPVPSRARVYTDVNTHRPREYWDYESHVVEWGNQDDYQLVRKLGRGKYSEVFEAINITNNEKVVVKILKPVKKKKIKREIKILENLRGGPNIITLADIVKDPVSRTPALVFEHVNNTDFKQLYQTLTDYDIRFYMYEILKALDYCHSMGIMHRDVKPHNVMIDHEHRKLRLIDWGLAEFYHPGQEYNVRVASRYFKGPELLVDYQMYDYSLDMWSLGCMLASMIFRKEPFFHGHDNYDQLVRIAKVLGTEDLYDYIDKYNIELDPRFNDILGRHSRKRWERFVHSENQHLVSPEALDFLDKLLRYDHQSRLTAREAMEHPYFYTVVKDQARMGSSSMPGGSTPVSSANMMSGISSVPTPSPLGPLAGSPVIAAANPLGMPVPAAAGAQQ

STK17A (human) = STK17A (human) (UniProt Q9UEE5)
STK25 (human) = STK25 (human) (UniProt O00506)
PIP4K2C (human) = PIP4K2C (human) (UniProt Q8TBX8)
MAPK12 (human) = MAPK12 (human) (UniProt P53778)
GRK7 (human) = GRK7 (human) (UniProt Q8WTQ7)
WEE2 (human) = WEE2 (human) (UniProt P0C1S8)
ERBB3 (human) = ERBB3 (human) (UniProt P21860)
AXL (human) = AXL (human) (UniProt P30530)
FGFR2 (human) = FGFR2 (human) (UniProt P21802)
Chain of FGFR2 (human) (P21802 whole entry, looked up): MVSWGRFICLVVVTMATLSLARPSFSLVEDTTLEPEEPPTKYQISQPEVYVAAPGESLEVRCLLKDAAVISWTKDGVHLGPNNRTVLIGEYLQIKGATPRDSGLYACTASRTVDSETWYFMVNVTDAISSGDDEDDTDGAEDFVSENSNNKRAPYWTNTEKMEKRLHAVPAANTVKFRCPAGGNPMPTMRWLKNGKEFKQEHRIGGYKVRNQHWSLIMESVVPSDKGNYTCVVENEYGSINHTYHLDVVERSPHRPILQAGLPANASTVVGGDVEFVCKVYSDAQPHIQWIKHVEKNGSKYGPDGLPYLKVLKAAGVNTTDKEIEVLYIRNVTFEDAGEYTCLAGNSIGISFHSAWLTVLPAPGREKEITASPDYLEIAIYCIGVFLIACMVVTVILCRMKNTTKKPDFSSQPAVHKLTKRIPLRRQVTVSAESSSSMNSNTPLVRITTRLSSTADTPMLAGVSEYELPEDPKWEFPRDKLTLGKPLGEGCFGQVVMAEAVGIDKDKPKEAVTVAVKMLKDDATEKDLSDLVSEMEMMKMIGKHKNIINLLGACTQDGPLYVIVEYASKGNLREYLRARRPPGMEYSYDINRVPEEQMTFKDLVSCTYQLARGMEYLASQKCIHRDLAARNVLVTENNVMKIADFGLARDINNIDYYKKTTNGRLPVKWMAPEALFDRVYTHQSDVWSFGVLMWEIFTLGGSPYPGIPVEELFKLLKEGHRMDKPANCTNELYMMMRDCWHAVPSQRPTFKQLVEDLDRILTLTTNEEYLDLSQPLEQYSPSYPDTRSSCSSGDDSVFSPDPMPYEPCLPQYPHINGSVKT

MAST1 (human) = MAST1 (human) (UniProt Q9Y2H9)
SIK2 (human) = SIK2 (human) (UniProt Q9H0K1)
PIK3C2B (human) = PIK3C2B (human) (UniProt O00750)
Chain of PIK3C2B (human) (O00750 whole entry, looked up): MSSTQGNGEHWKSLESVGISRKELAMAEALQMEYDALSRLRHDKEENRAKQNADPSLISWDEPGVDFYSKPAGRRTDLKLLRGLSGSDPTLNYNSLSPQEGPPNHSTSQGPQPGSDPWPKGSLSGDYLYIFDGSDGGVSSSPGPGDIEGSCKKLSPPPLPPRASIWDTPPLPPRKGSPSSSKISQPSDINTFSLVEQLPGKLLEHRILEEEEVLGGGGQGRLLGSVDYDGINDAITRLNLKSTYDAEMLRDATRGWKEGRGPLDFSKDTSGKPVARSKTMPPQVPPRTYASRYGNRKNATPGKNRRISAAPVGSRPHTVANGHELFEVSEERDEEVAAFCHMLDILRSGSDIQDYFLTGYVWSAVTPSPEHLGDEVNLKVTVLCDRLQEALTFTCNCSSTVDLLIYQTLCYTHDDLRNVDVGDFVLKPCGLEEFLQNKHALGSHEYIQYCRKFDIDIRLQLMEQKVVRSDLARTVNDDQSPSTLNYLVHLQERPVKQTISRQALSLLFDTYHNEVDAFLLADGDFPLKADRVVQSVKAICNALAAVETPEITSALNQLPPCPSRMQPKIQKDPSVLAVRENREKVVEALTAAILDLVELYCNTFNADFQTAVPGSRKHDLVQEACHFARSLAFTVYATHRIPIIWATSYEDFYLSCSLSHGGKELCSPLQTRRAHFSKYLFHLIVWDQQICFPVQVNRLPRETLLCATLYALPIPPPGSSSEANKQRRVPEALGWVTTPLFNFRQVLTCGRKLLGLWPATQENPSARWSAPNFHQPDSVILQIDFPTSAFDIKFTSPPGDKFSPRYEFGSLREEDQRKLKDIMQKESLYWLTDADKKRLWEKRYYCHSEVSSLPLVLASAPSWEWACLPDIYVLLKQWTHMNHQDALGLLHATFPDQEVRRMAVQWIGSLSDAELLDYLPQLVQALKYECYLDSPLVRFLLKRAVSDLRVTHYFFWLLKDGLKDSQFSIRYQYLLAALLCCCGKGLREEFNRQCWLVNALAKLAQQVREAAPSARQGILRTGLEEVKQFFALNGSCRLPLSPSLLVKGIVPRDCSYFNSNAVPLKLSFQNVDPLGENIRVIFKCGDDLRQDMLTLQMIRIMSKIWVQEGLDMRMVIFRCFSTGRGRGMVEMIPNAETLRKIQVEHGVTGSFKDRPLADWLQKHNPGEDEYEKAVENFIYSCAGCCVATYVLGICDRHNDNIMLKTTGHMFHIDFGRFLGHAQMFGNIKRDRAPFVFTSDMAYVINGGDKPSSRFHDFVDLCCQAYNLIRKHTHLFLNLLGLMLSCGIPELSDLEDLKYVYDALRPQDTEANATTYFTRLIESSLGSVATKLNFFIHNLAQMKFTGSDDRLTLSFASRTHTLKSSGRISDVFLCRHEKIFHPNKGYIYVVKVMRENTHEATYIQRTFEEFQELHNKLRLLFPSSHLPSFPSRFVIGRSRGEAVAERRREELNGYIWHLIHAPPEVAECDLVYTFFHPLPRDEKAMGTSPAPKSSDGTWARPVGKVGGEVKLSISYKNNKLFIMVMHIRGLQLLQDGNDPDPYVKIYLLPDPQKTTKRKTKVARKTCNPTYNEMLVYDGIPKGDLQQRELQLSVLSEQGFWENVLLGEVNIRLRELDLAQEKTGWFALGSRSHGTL

CHEK2 (human) = CHEK2 (human) (UniProt O96017)
TNNI3K (human) = TNNI3K (human) (UniProt Q59H18)
Chain of TNNI3K (human) (Q59H18 whole entry, looked up): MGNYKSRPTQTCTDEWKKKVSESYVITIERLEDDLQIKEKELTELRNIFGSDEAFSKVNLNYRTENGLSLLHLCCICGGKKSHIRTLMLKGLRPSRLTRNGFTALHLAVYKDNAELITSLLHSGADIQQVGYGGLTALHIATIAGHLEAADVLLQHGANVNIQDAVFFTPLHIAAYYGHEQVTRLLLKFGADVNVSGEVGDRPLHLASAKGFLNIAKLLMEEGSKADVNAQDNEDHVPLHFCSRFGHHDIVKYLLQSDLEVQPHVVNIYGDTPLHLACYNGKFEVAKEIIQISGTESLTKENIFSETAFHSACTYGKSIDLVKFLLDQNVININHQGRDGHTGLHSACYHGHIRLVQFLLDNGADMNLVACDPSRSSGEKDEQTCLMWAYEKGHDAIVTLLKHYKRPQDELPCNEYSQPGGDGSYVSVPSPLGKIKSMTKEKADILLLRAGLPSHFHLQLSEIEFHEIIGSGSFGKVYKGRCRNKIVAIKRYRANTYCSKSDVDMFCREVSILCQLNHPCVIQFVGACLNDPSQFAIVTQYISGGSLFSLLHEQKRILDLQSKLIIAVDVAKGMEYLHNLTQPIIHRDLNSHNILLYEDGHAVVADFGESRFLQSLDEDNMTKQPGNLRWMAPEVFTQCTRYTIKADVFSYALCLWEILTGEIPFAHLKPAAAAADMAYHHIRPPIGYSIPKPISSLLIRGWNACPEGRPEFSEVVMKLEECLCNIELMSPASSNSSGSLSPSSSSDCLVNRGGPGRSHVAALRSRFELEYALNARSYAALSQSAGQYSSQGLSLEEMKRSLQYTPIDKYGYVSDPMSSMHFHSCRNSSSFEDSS

PTK6 (human) = PTK6 (human) (UniProt Q13882)
MAP3K13 (human) = MAP3K13 (human) (UniProt O43283)
CDKL3 (human) = CDKL3 (human) (UniProt Q8IVW4)
Chain of CDKL3 (human) (Q8IVW4 whole entry, looked up): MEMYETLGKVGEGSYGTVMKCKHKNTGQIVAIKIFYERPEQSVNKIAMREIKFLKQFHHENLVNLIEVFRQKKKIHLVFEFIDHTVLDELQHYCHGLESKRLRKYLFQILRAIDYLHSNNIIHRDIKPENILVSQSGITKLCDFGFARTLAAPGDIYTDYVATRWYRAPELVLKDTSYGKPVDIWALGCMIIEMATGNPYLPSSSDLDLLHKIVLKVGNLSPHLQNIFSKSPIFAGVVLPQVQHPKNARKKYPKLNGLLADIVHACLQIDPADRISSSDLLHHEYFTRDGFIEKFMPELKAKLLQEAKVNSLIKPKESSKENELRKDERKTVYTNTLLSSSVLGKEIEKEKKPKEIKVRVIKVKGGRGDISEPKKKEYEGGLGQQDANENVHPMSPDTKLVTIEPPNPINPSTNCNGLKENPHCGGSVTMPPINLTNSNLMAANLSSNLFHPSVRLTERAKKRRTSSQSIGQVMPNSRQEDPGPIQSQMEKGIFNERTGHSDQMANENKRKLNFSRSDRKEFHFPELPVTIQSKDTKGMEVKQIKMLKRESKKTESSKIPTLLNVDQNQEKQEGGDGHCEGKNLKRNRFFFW

NIM1 (human) = NIM1 (human) (UniProt Q8IY84)
CLK1 (human) = CLK1 (human) (UniProt P49759)

**Q.** What does the source list for `CCN1CCN(Cc2ccc(NC(=O)c3ccc(C)c(/C=C/c4cnc5[nH]ccc5c4OC)c3)cc2C(F)(F)F)CC1`?
**A.** kinase still bound, per cent of control (BMPR2 (human)): 6.6%; kinase still bound, per cent of control (FYN (human)): 1.2%; kinase still bound, per cent of control (SYK (human)): 7.2%; kinase still bound, per cent of control (PRKACB (human)): 100%; kinase still bound, per cent of control (STK33 (human)): 31%; kinase still bound, per cent of control (PRKAA2 (human)): 39%; kinase still bound, per cent of control (SRC (human)): 0.15%; kinase still bound, per cent of control (MYO3B (human)): 40%; kinase still bound, per cent of control (ULK3 (human)): 1.5%; kinase still bound, per cent of control (LRRK2 (human)): 12%; kinase still bound, per cent of control [1]: 18%; kinase still bound, per cent of control (ACVR2B (human)): 62%; kinase still bound, per cent of control (TESK1 (human)): 15%; kinase still bound, per cent of control (MAP4K1 (human)): 0%; kinase still bound, per cent of control (MST1R (human)): 100%; kinase still bound, per cent of control (TEC (human)): 0.5%; kinase still bound, per cent of control (PLK2 (human)): 60%; kinase still bound, per cent of control (HIPK3 (human)): 44%; kinase still bound, per cent of control (CSNK1D (human)): 38%; kinase still bound, per cent of control (DCLK2 (human)): 100%; kinase still bound, per cent of control (CSNK2A1 (human)): 90%; kinase still bound, per cent of control (STK17A (human)): 1.3%; kinase still bound, per cent of control (STK25 (human)): 100%; kinase still bound, per cent of control (PIP4K2C (human)): 100%; kinase still bound, per cent of control (MAPK12 (human)): 40%; kinase still bound, per cent of control (GRK7 (human)): 77%; kinase still bound, per cent of control (WEE2 (human)): 4.8%; kinase still bound, per cent of control (ERBB3 (human)): 100%; kinase still bound, per cent of control (AXL (human)): 4.6%; kinase still bound, per cent of control (FGFR2 (human)): 3.7%; kinase still bound, per cent of control (MAST1 (human)): 100%; kinase still bound, per cent of control (SIK2 (human)): 30%; kinase still bound, per cent of control (PIK3C2B (human)): 100%; kinase still bound, per cent of control (CHEK2 (human)): 66%; kinase still bound, per cent of control (TNNI3K (human)): 1%; kinase still bound, per cent of control (PTK6 (human)): 9.6%; kinase still bound, per cent of control (MAP3K13 (human)): 20%; kinase still bound, per cent of control (CDKL3 (human)): 4%; kinase still bound, per cent of control (NIM1 (human)): 100%; kinase still bound, per cent of control (CLK1 (human)): 14%
